This series concerns rodent carcinogenicity bioassays, tumor incidence. The experiment in a line: CCRIS carcinogenicity studies. Summed up:
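Archive of carcinogenicity, mutagenicity, tumor promotion and tumor inhibition results drawn from journals, NCI reports and other sources, expert-reviewed; covers 1985-2011 and is no longer updated.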

Calls of active or inactive are those of the source. No rule for the calls is given here.

Consider `O=NN1CCOCC1`, for which the carcinogen call is “active; positive” (Species: FISH, Route: ORAL, Tumor Site: Type of Lesion: LIVER); “active; positive” (Species: HAMSTER, Route: ORAL, Tumor Site: Type of Lesion: LIVER); “active; positive” (Species: HAMSTER, Route: SUBCUTANEOUS, Tumor Site: Type of Lesion: TRACHEA, NASAL CAVITY); “active; positive” (Species: HAMSTER, Strain/Sex: SYRIAN/MALE, Route: INHALATION, Dose: 0, 14.4 MG/M3 4 HR/D 4-5 D/WK FOR 5 WK FOR A DAILY DOSE OF 0, 1.8 MG/KG (STUDY DURATION: 91 WK), Dose: 0, 14.4 MG/M3 4 HR/D 4-5 D/WK FOR 5 WK FOR A DAILY DOSE OF 0, 1.8 MG/KG (STUDY DURATION: 91 WK), Tumor Site: Type of Lesion: LIVER: HEPATOCELLULAR CARCINOMA OR HEMANGIOENDOTHELIOMA OR CARCINOMA, FORESTOMACH: PAPILLOMA, TRACHEA: PAPILLOMA, Tumor Site: Type of Lesion: LIVER: HEPATOCELLULAR CARCINOMA OR HEMANGIOENDOTHELIOMA OR CARCINOMA, FORESTOMACH: PAPILLOMA, TRACHEA: PAPILLOMA); “active; positive” (Species: HAMSTER, Strain/Sex: SYRIAN/MALE, Route: INTRAGASTRIC, Dose: 0, 26 MG/ML IN 0.2 ML STERILIZED WATER 1/WK FOR 26 WK (TOTAL DOSE 135 MG) (STUDY DURATION: LIFESPAN), Tumor Site: Type of Lesion: NASAL CAVITY: CARCINOMA, TRACHEA: ADENOMA); “active; positive” (Species: MOUSE, Route: ORAL, Tumor Site: Type of Lesion: LIVER, LUNG). The carcinogen call (Species: MOUSE, Strain/Sex: STRAIN-A/FEMALE, Route: ORAL, Dose: 0, 0.2 UMOL/ML IN DRINKING WATER FOR 10 WK (TOTAL DOSE: 0, 54 UMOL) FOLLOWED BY TAP WATER FOR 20 WK (STUDY DURATION: 30, Tumor Site: Type of Lesion: LUNG: TUMORS) is “active; positive”; the carcinogen call (Species: RAT, Route: ORAL, Tumor Site: Type of Lesion: KIDNEY, LIVER) is “active; positive”; the carcinogen call (Species: RAT, Strain/Sex: F344/FEMALE, Route: GAVAGE, Dose: 0, 10 MG/WK FOR A TOTAL DOSE OF 1.9 MMOL (STUDY DYRATION: 30 WK), Tumor Site: Type of Lesion: ESOPHAGUS: TUMOR, LIVER: TUMOR, THYROID: TUMOR, Tumor Site: Type of Lesion: ESOPHAGUS: TUMOR, LIVER: TUMOR, THYROID: TUMOR) is “active; positive”; the carcinogen call (Species: RAT, Strain/Sex: F344/FEMALE, Route: INTRAVESICULAR, Dose: 0, 5 MG IN 0.2 ML ETHANOL: DEIONIZED WATER (1:3) 2/WK FOR 30 WK (TOTAL DOSE 2.6 MMOL) (STUDY DURATION: LIFESPAN), Tumor Site: Type of Lesion: LIVER: TUMOR, NASAL MUCOSA: TUMOR, ESOPHAGUS: TUMOR, Tumor Site: Type of Lesion: LIVER: TUMOR, NASAL MUCOSA: TUMOR, ESOPHAGUS: TUMOR) was “active; positive”; the carcinogen call (Species: RAT, Strain/Sex: F344/FEMALE, Route: ORAL, Dose: 0, 26.5 MG/L IN DRINKING WATER 5 D/WK FOR 50 WK (TOTAL DOSE: 0; 1.1 MMOL) (STUDY DURATION: 124 WK), Dose: 0, 26.5 MG/L IN DRINKING WATER 5 D/WK FOR 50 WK (TOTAL DOSE: 0; 1.1 MMOL) (STUDY DURATION: 124 WK), Tumor Site: Type of Lesion: LIVER: HEPATOCELLULAR TUMOR, HEMANGIOSARCOMA) was “active; positive”; the carcinogen call (Species: RAT, Strain/Sex: F344/FEMALE, Route: ORAL, Dose: 40 MG/L IN DRINKING WATER FOR 50 WK, Tumor Site: Type of Lesion: LIVER: HEPATOCELLULAR CARCINOMA, HEMANGIOENDOTHELIAL SARCOMA, ESOPHAGUS: PAPILLOMA, CARCINOMA) is “active; positive”. The carcinogen call (Species: RAT, Strain/Sex: F344/MALE, Route: ORAL, Dose: 0, 0.02% IN DRINKING WATER FOR 8 WK (STUDY DURATION: 20 WK), Tumor Site: Type of Lesion: LIVER: HEPATOCELLULAR CARCINOMA) was “active; positive”; the carcinogen call (Species: RAT, Strain/Sex: F344/MALE, Route: ORAL, Dose: 16, 40 MG/L IN DRINKING WATER FOR 50 WK, Tumor Site: Type of Lesion: LIVER: HEPATOCELLULAR CARCINOMA, HEMANGIOENDOTHELIAL SARCOMA, ESOPHAGUS: PAPILLOMA) is “active; positive”; the carcinogen call (Species: RAT, Strain/Sex: SD/G/MALE, Route: ORAL, Dose: 0, 0.02% IN DRINKING WATER FOR 8 WK (STUDY DURATION: 20 WK)) was “inactive; negative”; the carcinogen call (Species: RAT, Strain/Sex: SPRAGUE-DAWLEY/FEMALE, Route: INHALATION, Dose: 0, 7.7 MG/M3 4 HR/D 4-5 D/WK FOR 6 WK FOR A DAILY DOSE OF 0, 0.5 MG/KG (STUDY DURATION: 124 WK), Dose: 0, 7.7 MG/M3 4 HR/D 4-5 D/WK FOR 6 WK FOR A DAILY DOSE OF 0, 0.5 MG/KG (STUDY DURATION: 124 WK), Tumor Site: Type of Lesion: LIVER: HEPATOCELLULAR CARCINOMA, NEOPLASTIC NODULE) is “active; positive”; the carcinogen call (Species: RAT, Strain/Sex: WS/MALE, Route: ORAL, Dose: 0, 0.02% IN DRINKING WATER FOR 8 WK (STUDY DURATION: 20 WK), Tumor Site: Type of Lesion: LIVER: HEPATOCELLULAR CARCINOMA) is “active; positive”.
